The subject of one experiment is MDR-sup fission yeast. The experiment can be described thus: Phenotypic assay of microtubule organization in MDR-sup strain expressing GFP-atb2. Type of experiment: cell-based, Schizosaccharomyces pombe. Particulars: 5 µM compound for 3 h, living cells. Here is the method: We have previously screened a collection of 10 371 small molecules to identify compounds that inhibit the growth of a multiple-drug-sensitive fission yeast strain (MDR-sup). We selected 248 compounds (2.4% of the total) that inhibited fission yeast cell growth rate by at least 50% (figure 1a) and subsequently conducted a phenotypic screen of these to identify drugs that affect microtubule organization (figure 1b). After the MDR-sup cells were treated with 5 µM of each compound for 3 h, microtubules were monitored using GFP tagged α-tubulin Atb2 and live-cell fluorescence microscopy. In untreated interphase cells, microtubules form long cytoplasmic arrays that run parallel to the long cellular axis, and in mitotic cells, microtubules form a bipolar spindle in the nucleus and the cytoplasmic microtubules disappear (figure 1c(i), arrow). […] This screen identified 34 compounds that induced cytological phenotypes indicative of defects in microtubule organization or function.
Figure 1. Phenotypic screening in MDR-sup fission yeast (a). Growth assay screening using MDR-sup strain. The optical density was measured with 20 µM of each compound and 248 compounds that gave at least 50% growth inhibition were used for further phenotyping marked by the red lines. Growth was normalized to DMSO-treated cells. (b) Schematic representation of the screening workflow. (c) Examples of the phenotypic assay using L1, P2 and B8 in the MDR-sup strain expressing GFP-atb2 (tubulin) are shown. Cells were incubated in 5 µM compound for 3 h and atb2 signals were detected in living cells. (i) Cells in absence of any compound. In interphase cells, α-tubulin Atb2 protein was detected in the nucleus and interphase microtubules, while mitotic spindles were detected in mitotic cells (arrows). (ii) In the presence of L1, microtubules were depolymerized and tubulin signals were detected distributed throughout the nucleus. (iii) In the presence of P2, short spindles were detected but anaphase spindles were not. (iv) In the presence of B8, interphase microtubules were not detected, while, dots were detected. […]

Experiment [1] has as its target T1, porcine brain tubulin heterodimer (Sus scrofa, UniProt P02550+P02554).
T1 construct: highly purified porcine brain tubulin heterodimer; purchased Cytoskeleton T240 (kit BK011P); host or cells: porcine brain tissue
The experiment can be described thus: In vitro tubulin polymerization assay. Format: biochemical. As to conditions: IC50 of tubulin polymerization. How it is done:
To determine whether the 12 compounds affected mitotic spindle organization by directly interfering with tubulin polymerization, we performed in vitro tubulin polymerization assays. […] Tubulin polymerization was monitored every 1 min by measuring fluorescence absorbance at 340 nm for 1 h.
Figure 3. […] Tubulin was incubated with 5 µM of the compounds and DMSO for 60 min at 37°C. The fluorescence increase was monitored every minute at 340 nm. […] (b). […] Nocodazole (NOC) was used as the control. (c). […] (d) The same experiment as (c) but carried out at a different time.
The Tubulin Polymerization HTS Assay Kit (Cytoskeleton, BK011P) was used according to the manufacturer's instructions. All components were added into a 96-well microtiter plate (Corning Costar, cat. no. 3686), then the tubulin reaction mixture was quickly added to the wells, and tubulin polymerization was initiated and monitored every 1 min at 37°C for 1 h by recording fluorescence of excitation wavelength at 340 nm and emission at 450 nm. The tubulin reaction mixture was composed of 80 mM PIPES (pH 6.9), and 1 mM MgCl2, 1 mM EGTA, 1 mM GTP and 2 mg ml^−1 of highly purified porcine brain tubulin heterodimer (Cytoskeleton, cat. no. T240).

T1 sequence (P02554 whole entry): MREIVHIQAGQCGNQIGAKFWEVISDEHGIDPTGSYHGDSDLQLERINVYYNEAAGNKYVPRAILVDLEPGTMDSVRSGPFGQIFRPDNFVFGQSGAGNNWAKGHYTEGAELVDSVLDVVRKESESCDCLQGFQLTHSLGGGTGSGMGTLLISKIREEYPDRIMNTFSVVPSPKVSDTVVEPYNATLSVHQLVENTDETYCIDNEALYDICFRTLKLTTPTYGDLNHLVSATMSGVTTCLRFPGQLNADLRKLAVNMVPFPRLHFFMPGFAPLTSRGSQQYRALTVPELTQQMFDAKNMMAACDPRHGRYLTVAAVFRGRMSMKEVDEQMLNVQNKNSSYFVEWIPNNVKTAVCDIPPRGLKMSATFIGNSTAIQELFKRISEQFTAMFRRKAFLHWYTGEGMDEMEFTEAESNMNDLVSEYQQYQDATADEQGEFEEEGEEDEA
T1 sequence (P02550 whole entry): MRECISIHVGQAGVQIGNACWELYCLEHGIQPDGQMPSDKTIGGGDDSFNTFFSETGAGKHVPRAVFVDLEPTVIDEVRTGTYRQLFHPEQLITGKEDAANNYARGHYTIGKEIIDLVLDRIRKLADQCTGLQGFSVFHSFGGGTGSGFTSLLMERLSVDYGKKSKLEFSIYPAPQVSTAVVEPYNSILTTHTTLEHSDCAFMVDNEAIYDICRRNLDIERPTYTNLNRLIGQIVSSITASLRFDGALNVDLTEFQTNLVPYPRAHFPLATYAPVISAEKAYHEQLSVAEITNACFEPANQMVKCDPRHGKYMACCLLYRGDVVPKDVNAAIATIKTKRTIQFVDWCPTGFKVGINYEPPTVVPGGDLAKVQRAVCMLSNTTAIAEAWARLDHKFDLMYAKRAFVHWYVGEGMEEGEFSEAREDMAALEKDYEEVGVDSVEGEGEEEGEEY

Regarding `COc1cc(Br)cc2c1OC(c1ccc3c(c1)OCO3)C([N+](=O)[O-])=C2` (stereo not drawn) [L1], the “microtubule phenotype (GFP-atb2 tubulin signal)” value in the experiment with MDR-sup fission yeast is “microtubules are undetectable, and α-tubulin accumulates in the nucleus”. Moreover, the IC50 (commonly the point on the concentration scale where inhibition reaches its midpoint) in experiment [1] (figure 3c, 37°C, 1 h) came to 470 nM; in experiment [1] (figure 3d, same experiment carried out at a different time), 460 nM.

These data come from paper PMC8424300, “Identification of novel microtubule inhibitors effective in fission yeast and human cells and their effects on breast cancer cell lines” (Open Biology, 2021).
